Data as given in PMC6642116, “Structural and functional analyses of hepatitis B virus X protein BH3-like domain and Bcl-xL interaction” (Nature Communications, 2019).

Legend:
Bcl-xL = target: T1, Bcl-xL (Homo sapiens, UniProt Q07817, DEL27-82); test: Isothermal titration calorimetry of peptides with Bcl-xL; type: binding; conditions: ITC, 25 °C; Bcl-xL 10 μM in 25 mM Tris-HCl (pH 8.0); peptide 800 μM
T1 construct: 6xHis-SUMO (N, cleaved yes); made in house; host or cells: Escherichia coli BL21(DE3)
T1 sequence (Q07817 with tags, fused parts or gaps DEL27-82 limits assumed): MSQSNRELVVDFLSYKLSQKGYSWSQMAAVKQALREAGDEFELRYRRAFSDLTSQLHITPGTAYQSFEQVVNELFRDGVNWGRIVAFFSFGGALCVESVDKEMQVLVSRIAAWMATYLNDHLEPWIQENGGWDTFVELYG
Description: The codon-optimized DNAs encoding Bcl-xLΔTM (the flexible loop, residues 27–82, and the transmembrane domain, residues, 197–233, are deleted, total […], named as Bcl-xL thereafter) was ordered from Genewiz (www.genewiz.com). The recombinant Bcl-xL with N-terminal SUMO-fused 6× His tag was generated by the insertion of the PCR products into pETSUMO vector (Invitrogen; www.thermofisher.com) and verified by sequencing. Recombinant proteins were expressed in Escherichia coli (BL21/DE3) strain overnight at 20 °C and proteins were induced by 0.4 mM isopropyl β-D-thiogalactoside. Cells were harvested by centrifugation and the pellets were re-suspended and passed through a cell disruptor (www.avestin.com) three times. After ultracentrifugation at 40,000 rpm for 1 h, the supernatant for His-tagged recombinant proteins were purified through Ni^2+ affinity column, cleaved by Ulp-1, followed by HiLoad Superdex S-75 26/60 column (GE Healthcare). The purified proteins were dialyzed against stabilization buffer containing 20 mM Tris-HCl (pH 7.0) and 100 mM NaCl and concentrated to 10–15 mg/ml in a Centriprep-30 (Amicon) for subsequent crystallization and biochemical analysis.
Microcalorimetry was used for all measurements. Bcl-xL protein was prepared at a final concentration of 10 μM in a buffer containing 25 mM Tris-HCl (pH 8.0). The ABT-263 was dissolved in the same buffer to a final concentration of 500 μM, while the peptides were dissolved to a final concentration of 800 μM. All experiments were carried out at 25 °C. Data were analyzed using the software Origin (OriginLab).

[1] = test system: endogenous Bcl-xL protein in HepG2 cell lysate; test: Co-precipitation of endogenous Bcl-xL from HepG2 cell lysate by biotinylated HBx peptides; type: binding, human; conditions: biotinylated peptide, streptavidin beads, immunoblot
Description: Fig. 2 HBx binds endogenous Bcl-xL through the BH3-like domain. a HBx-aa113–135 interacts with Bcl-xL in HepG2 cell lysate. Co-precipitation experiments were performed in the HepG2 cell lysate using biotinylated HBx-aa113–135 peptides (wild type (WT)) and corresponding mutant peptides (W120A/L123A), respectively. The results were analyzed by immunoblotting (IB) using anti-Bcl-xL antibody. β-Tubulin was measured and analyzed as an input control. b Full-length HBx interacts with Bcl-xL in HepG2 cells. Co-immunoprecipitation (co-IP) experiments were performed in HepG2 cells transfected with pTT22m-HBx-WT or pTT22m-HBx(W120A/L123A).
HepG2 cells were lysed in lysis buffer [100 mM NaCl, 0.5 mM MgCl2, 0.15 mM CaCl2, 1% (v/v) Nonidet P-40, 10 mM Tris-HCl, pH 8.0] containing protease inhibitor mixture tablets (Roche). Cell lysate was centrifuged at 12,000 × g for 10 min at 4 °C to removed debris and precleared with magnetic beads conjugated with streptavidin (Dynabeads® M-280 Streptavidin, Invitrogen). Subsequently, the precleared supernatant was incubated with C-terminal biotinylated peptides for 1 h with gentle shaking at 4 °C. […] The beads were washed five times with the lysis buffer and the bound proteins were resolved on a 13.5% sodium dodecyl sulfate-polyacrylamide gel and detected by anti-Bcl-xL antibody (Cell Signaling Technology).

[2] = test system: HBV replication from pHBV1.3-Xnull replicon in HepG2 cells; test: HBV production rescue assay, PEP-1 delivered peptides; type: cell-based; conditions: HepG2 + pHBV1.3-Xnull; for HBcAg in cells / HBeAg in culture medium / HBsAg in culture medium / Secreted HBV DNA: peptide/PEP-1, 48 h; for HBV viral protein production and HBV DNA replication (in words): peptide/PEP-1 nanoparticles, 48 h
Description: Fig. 3 The HBx-BH3-like domain is critical for HBV production in HepG2 cells. a–e C-terminal biotinylated HBx-aa113–135 peptides (both wild-type (WT) and the W120A/L123A double mutant) were delivered into HepG2 cells transfected with pHBV1.3-Xnull using PEP-1 nanoparticles (Methods) and analyzed by streptavidin-FITC (fluorescein isothiocyanate) for transfection efficiency (a). Scale bar is 50 μm. An unrelated 23-aa peptide was used as a control (Control). The intracellular expression levels of HBV core antigen (HBcAg (b) and the levels of HBV e-antigen (HBeAg) (c), HBV S-antigen (HBsAg) (d), and HBV DNA (e) in the culture medium collected from HepG2 cells were measured (Methods). The results are shown as fold change to the WT HBx-aa113–135 peptide (WT). f–i) HepG2 cells were co-transfected with pHBV1.3-Xnull and pTT22m-HBx-WT (WT), pHBV1.3-Xnull and pTT22m-HBx(W120A/L123A), or pHBV1.3-Xnull and the pTT22m vector control (Control). Intracellular expression levels of HBcAg (f) and the levels of HBeAg (g), HBsAg (h), and HBV DNA (i) in the culture medium from HepG2 cells were measured similarly. The results are shown as fold change to the combination of pHBV1.3-Xnull and pTT22m-HBx-WT (WT). Data shown represent mean ± SD. Significance is indicated on the top. **P < 0.01, ***P < 0.001, ****P < 0.0001; two-tailed unpaired t tests (n = 3 biologically independent samples). Source data are provided as a Source Data file
HepG2 cells were grown in Dulbecco’s modified Eagle’s medium (DMEM) with 10% Gibco fetal bovine serum. C-terminal biotinylated-labeled HBx peptides were transfected into HepG2 cells by pep-1[16], a peptide carrier for the delivery of biologically active proteins into mammalian cells. HBx peptides and pep-1 were firstly dissolved in DMEM to 1 mg/ml, then adjusted to 500 µl DMEM to a final concentration of 100 µg/ml, and incubated at 37 °C for 30 min in the tube. The incubated peptide mixture was added into pre-seeded HepG2 cells in a 24-well plate and incubated for another 30 min, and then washed five times by phosphate-buffered saline (PBS) to remove the free peptides. The transfected C-terminal biotinylated HBx peptides were detected by using streptavidin-FITC (fluorescein isothiocyanate) equipment (Thermo Fisher Scientific) following the standard immunostaining methods.
Transfection of plasmids into HepG2 cells was carried out using X-tremeGENE HP DNA Transfection Reagent (Roche), following the manufacturer’s protocol. A transfection efficiency of 20–30% could be achieved. Cells were pre-seeded 24 h before transfections. pHBV1.3-HBx-null plasmid was transfected into HepG2 cells for 6 h, then HBx-aa113–135, HBx-aa113–135-(W120A, L123A), or control peptide was transfected by pep-1 carrier and incubated for additional 48 h without the removal of peptides. The culture media of the HepG2 cells were harvest for analysis.
The levels of HBsAg, HBeAg, and HBcAg expression were measured by chemiluminescence, using Commercial Assay Kit (Wantai, Beijing, China). Northern blot analysis of HBV RNA, Southern blot analysis of HBV DNA, and real-time PCR quantification of HBV DNA are described in the Supplementary Methods.

DDB1 = type: binding; conditions: biotin-conjugated peptides, HepG2 lysate; peer review file, removed from final paper
Description: (§1) affect the level of the Smc6 proteins in HepG2 cell. a, Coprecipitation experiments were performed with HepG2 cell lysate that was incubated with biotinylated HBx-aa113-135 peptides (WT) and mutant peptides with the W120A/L123A mutations, respectively. The pulldown proteins were analyzed by immunoblotting (IB) using an anti-DDB1 antibody (Abcam, ab109027). b-c, HBx-aa113-135 peptides (wild-type and the W120A/L123A double mutant peptides) were delivered into HepG2 cells using PEP-1 nanoparticles, respectively. […]

SMC6 = type: cell-based; conditions: HepG2, 48 h, PEP-1 delivery; peer review file, removed from final paper
Description: as §1
Smc6 protein expression. Nuclei were stained with DAPI (Invitrogen, D1306). The fluorescence was detected by Opera Phenix High Content Screening System (PerkinElmer) and the mean green fluorescence intensity of cells was quantified by Opera Phenix High Content Screening System. The data shown are mean ± SD. Significant differences between groups are indicated on the top. ns, no significant difference; two-tailed unpaired t-tests.

Substance	dissociation constant (Bcl-xL)	co-precipitation of Bcl-xL [1]	HBcAg in cells ([2]; replicate 1)	HBeAg in culture medium ([2]; replicate 1)	HBsAg in culture medium ([2]; replicate 1)	Secreted HBV DNA ([2]; replicate 1) [Copies/mL]	HBcAg in cells ([2]; replicate 2)	HBeAg in culture medium ([2]; replicate 2)	HBsAg in culture medium ([2]; replicate 2)	Secreted HBV DNA ([2]; replicate 2) [Copies/mL]	HBcAg in cells ([2]; replicate 3)	HBeAg in culture medium ([2]; replicate 3)	HBsAg in culture medium ([2]; replicate 3)	Secreted HBV DNA ([2]; replicate 3) [Copies/mL]	HBV viral protein production and HBV DNA replication (in words) [2]	pull-down of DDB1 by peptide (DDB1)	level of SMC6 protein, compared with control peptide (SMC6)
KDCVFKDAEEAGEEIRLKVFVLG-K-biotin [HBx-aa113–135(W120A/L123A)]	not detectable	much less Bcl-xL was co-precipitated	0.546 fold-change to WT	0.448 fold-change to WT	0.379 fold-change to WT	1584000	0.465 fold-change to WT	0.393 fold-change to WT	0.356 fold-change to WT	1498000	0.491 fold-change to WT	0.405 fold-change to WT	0.352 fold-change to WT	1278000	failed to do so	could not be pulled down	comparable
KDCVFKDWEELGEEIRLKVFVLG-K-biotin [HBx-aa113–135-biotin, C-terminal biotinylated wild-type HBx-aa113–135; delivered with PEP-1 nanoparticles in cells]		Bcl-xL was co-precipitated	1.057 fold-change to WT	0.919 fold-change to WT	0.971 fold-change to WT	3830000	0.952 fold-change to WT	1.090 fold-change to WT	1.038 fold-change to WT	2973000	0.991 fold-change to WT	0.990 fold-change to WT	0.991 fold-change to WT	4056000	significantly increased both HBV viral protein production and HBV DNA replication	could not be pulled down	comparable
